Reference: patent US8962674B2 (Tokyo Institute of Technology, priority 2006, dated 2015)

| Structure (SMILES) | melting point [°C] |
| --- | --- |
| COc1ccc(/C=C/C(=O)CC(=O)/C=C/c2ccc(O)cc2O)cc1O [CU258, (1E,6E)-1-(2,4-dihydroxyphenyl)-7-(3-hydroxy-4-methoxyphenyl)hepta-1,6-diene-3,5-dione] | 104 to 109 |
| COc1ccccc1/C=C/C(=O)CC(=O)/C=C/c1ccc(O)cc1 [CU066, (1E,6E)-1-(4-hydroxyphenyl)-7-(2-methoxyphenyl)hepta-1,6-diene-3,5-dione] | 171 to 178 |
| Cc1ccc(-n2cccc2/C=C/C(=O)CC(=O)/C=C/c2ccc(O)cc2)cc1 [CU338, (1E,6E)-1-(4-hydroxyphenyl)-7-[1-(4-methylphenyl)-1H-pyrrol-2-yl]hepta-1,6-diene-3,5-dione] | 144 to 150 |
| COc1ccc(/C=C/C(=O)CC(=O)/C=C/c2ccc(C)c(C)c2)cc1O [CU058, (1E,6E)-1-(3,4-dimethylphenyl)-7-(3-hydroxy-4-methoxyphenyl)hepta-1,6-diene-3,5-dione] | 150 to 154 |
| COc1ccc(/C=C/C(=O)CC(=O)/C=C/c2ccccn2)cc1O [CU218, (1E,6E)-1-(3-hydroxy-4-methoxyphenyl)-7-(pyridin-2-yl)hepta-1,6-diene-3,5-dione] | 182 to 187 |
| Cc1cc(/C=C/C(=O)CC(=O)/C=C/c2ccc(O)cc2)ccc1O [CU029, (1E,6E)-1-(4-hydroxy-3-methylphenyl)-7-(4-hydroxyphenyl)hepta-1,6-diene-3,5-dione] | 197 to 199 |
| COc1ccc(/C=C/C(=O)CC(=O)/C=C/c2cccc(O)c2O)cc1O [CU265, (1E,6E)-1-(2,3-dihydroxyphenyl)-7-(3-hydroxy-4-methoxyphenyl)hepta-1,6-diene-3,5-dione] | 170 to 172 |
| COc1cc(/C=C/C(=O)CC(=O)/C=C/c2cc(O)cc(O)c2)ccc1O [CU093, (1E,6E)-1-(3,5-dihydroxyphenyl)-7-(4-hydroxy-3-methoxyphenyl)hepta-1,6-diene-3,5-dione] | 85 to 90 |
| O=C(/C=C/c1ccc(O)c(Cl)c1)CC(=O)/C=C/c1ccc(O)c(Cl)c1 [CU387, (1E,6E)-1,7-bis(3-chloro-4-hydroxyphenyl)hepta-1,6-diene-3,5-dione] | 203 to 208 |
| COc1ccc(/C=C/C(=O)CC(=O)/C=C/c2ccc3cc[nH]c3c2)cc1O [CU191, (1E,6E)-1-(3-hydroxy-4-methoxyphenyl)-7-(1H-indol-6-yl)hepta-1,6-diene-3,5-dione] | 197 to 202 |
| COc1cc(/C=C/C(=O)CC(=O)/C=C/c2ccc(NC(C)=O)cc2)ccc1O [CU003, (1E,6E)-N-{4-[7-(4-hydroxy-3-methoxyphenyl)-3,5-dioxohepta-1,6-dienyl]phenyl}acetamide] | 193 to 195 |
| COc1ccc(/C=C/C(=O)CC(=O)/C=C/c2cccs2)cc1O [CU212, (1E,6E)-1-(3-hydroxy-4-methoxyphenyl)-7-(thiophen-2-yl)hepta-1,6-diene-3,5-dione] | 128 to 133 |
| Cc1ccc(Oc2ncccc2/C=C/C(=O)CC(=O)/C=C/c2ccc(O)cc2)cc1 [CU340, (1E,6E)-1-(4-hydroxyphenyl)-7-[2-(4-methylphenoxy)pyridin-3-yl]hepta-1,6-diene-3,5-dione] | 180 to 185 |
| COc1cccc(OC)c1/C=C/C(=O)CC(=O)/C=C/c1ccc(O)cc1 [CU102, (1E,6E)-1-(2,6-dimethoxyphenyl)-7-(4-hydroxyphenyl)hepta-1,6-diene-3,5-dione] | 165 to 170 |
| O=C(/C=C/c1ccc(O)cc1)CC(=O)/C=C/c1cccc2ncccc12 [CU324, (1E,6E)-1-(4-hydroxyphenyl)-7-(quinolin-5-yl)hepta-1,6-diene-3,5-dione] | 272 to 275 |
| O=C(/C=C/c1cccnc1N1CCN(Cc2ccccc2)CC1)CC(=O)/C=C/c1cccnc1N1CCN(Cc2ccccc2)CC1 [CU385, (1E,6E)-1,7-bis[2-(4-benzylpiperazin-1-yl)pyridin-3-yl]hepta-1,6-diene-3,5-dione] | 150 to 155 |
| COc1cc(/C=C/C(=O)CC(=O)/C=C/c2ccc(O)cc2)ccc1F [CU137, (1E,6E)-1-(4-fluoro-3-methoxyphenyl)-7-(4-hydroxyphenyl)hepta-1,6-diene-3,5-dione] | 136 to 143 |
| COc1ccc2cc(/C=C/C(=O)CC(=O)/C=C/c3ccc(OC)c(O)c3)ccc2c1 [CU171, (1E,6E)-1-(3-hydroxy-4-methoxyphenyl)-7-(6-methoxynaphthalen-2-yl)hepta-1,6-diene-3,5-dione] | 175 to 181 |
| Cc1ccc(Oc2ccc(/C=C/C(=O)CC(=O)/C=C/c3ccc(Oc4ccc(C)cc4)nc3)cn2)cc1 [CU378, (1E,6E)-1,7-bis[6-(4-methylphenoxy)pyridin-3-yl]hepta-1,6-diene-3,5-dione] | 185 to 190 |
| COc1cc(/C=C/C(=O)CC(=O)/C=C/c2c(O)cccc2OC)ccc1O [CU279, (1E,6E)-1-(2-hydroxy-6-methoxyphenyl)-7-(4-hydroxy-3-methoxyphenyl)hepta-1,6-diene-3,5-dione] | 161 to 164 |
| COc1cc(/C=C/C(=O)CC(=O)/C=C/c2cc(Cl)ccc2Cl)ccc1O [CU184, (1E,6E)-1-(2,5-dichlorophenyl)-7-(4-hydroxy-3-methoxyphenyl)hepta-1,6-diene-3,5-dione] | 142 to 147 |
| COc1cc(/C=C/C(=O)CC(=O)/C=C/c2cccc(O)c2O)ccc1O [CU096, (1E,6E)-1-(2,3-dihydroxyphenyl)-7-(4-hydroxy-3-methoxyphenyl)hepta-1,6-diene-3,5-dione] | 82 to 89 |
| COc1ccc(/C=C/C(=O)CC(=O)/C=C/c2cc(O)ccc2O)cc1O [CU091, (1E,6E)-1-(2,5-dihydroxyphenyl)-7-(3-hydroxy-4-methoxyphenyl)hepta-1,6-diene-3,5-dione] | 115 to 121 |
| COc1cc(/C=C/C(=O)CC(=O)/C=C/c2ccc(O)cc2O)ccc1O [CU257, (1E,6E)-1-(2,4-dihydroxyphenyl)-7-(4-hydroxy-3-methoxyphenyl)hepta-1,6-diene-3,5-dione] | 99 to 108 |

More lines, now with the values ahead:

| melting point [°C] | Structure (SMILES) |
| --- | --- |
| 69 to 76 | CCN(CC)c1ccc(/C=C/C(=O)CC(=O)/C=C/c2ccc(O)cc2)c(OCC=C(C)C)c1 [CU426, (1E,6E)-1-(4-diethylamino-2-prenyloxyphenyl)-7-(4-hydroxyphenyl)hepta-1,6-diene-3,5-dione] |
| 172 to 175 | CCN(CC)c1ccc(/C=C/C(=O)CC(=O)/C=C/c2ccc(O)cc2)c(OCc2c(F)cccc2Cl)c1 [CU450, (1E,6E)-1-[2-(2-chloro-6-fluorobenzyloxy)-4-diethylaminophenyl]-7-(4-hydroxyphenyl)hepta-1,6-diene-3,5-dione] |
| 196 to 200 | CS(=O)(=O)n1cc(/C=C/C(=O)CC(=O)/C=C/c2ccc(O)cc2)c2ccccc21 [CU401, (1E,6E)-1-(4-hydroxyphenyl)-7-[1-(methylsulfonyl)-1H-indol-3-yl]hepta-1,6-diene-3,5-dione] |
| 187 to 190 | CCN(CC)c1ccc(/C=C/C(=O)CC(=O)/C=C/c2ccc(O)cc2)c(OCc2ccc(C(C)(C)C)cc2)c1 [CU452, (1E,6E)-1-[2-(4-tert-butylbenzyloxy)-4-diethylaminophenyl]-7-(4-hydroxyphenyl)hepta-1,6-diene-3,5-dione] |
| 218 to 222 | Cc1ccc(S(=O)(=O)n2cc(/C=C/C(=O)CC(=O)/C=C/c3ccc(O)cc3)c3ccccc32)cc1 [CU403, (1E,6E)-1-(4-hydroxyphenyl)-7-(1-tosyl-1H-indol-3-yl)hepta-1,6-diene-3,5-dione] |
| 151 to 155 | COc1ccc([N+](=O)[O-])c(/C=C/C(=O)CC(=O)/C=C/c2ccc(O)cc2)c1 [CU481, (1E,6E)-1-(4-hydroxyphenyl)-7-(5-methoxy-2-nitrophenyl)hepta-1,6-diene-3,5-dione] |
| 120 to 129 | CN(C)c1ccc(/C=C/C(=O)CC(=O)CCc2ccc(O)cc2)c(Cl)c1 [CU524, (E)-1-(2-chloro-4-dimethylaminophenyl)-7-(4-hydroxyphenyl)hept-1-ene-3,5-dione] |
| 127 to 133 | O=C(/C=C/c1ccc(O)cc1)CC(=O)/C=C/c1ccc(Br)cc1N1CCN(CCO)CC1 [CU502, (1E,6E)-1-{4-bromo-2-[4-(2-hydroxyethyl)piperazin-1-yl]phenyl}-7-(4-hydroxyphenyl)hepta-1,6-diene-3,5-dione] |
| 151 to 155 | Cc1ccc(-n2cccc2/C=C/C(=O)CC(=O)/C=C/c2cccn2-c2ccc(C)cc2)cc1 [CU389, (1E,6E)-1,7-bis[1-(4-methylphenyl)-1H-pyrrol-2-yl]hepta-1,6-diene-3,5-dione] |
| 105 to 114 | O=C(/C=C/c1ccc(O)cc1)CC(=O)/C=C/c1ccccc1-c1ccc2ccccc2c1 [CU529, (1E,6E)-1-(4-hydroxyphenyl)-7-[2-(naphthalen-2-yl)phenyl]hepta-1,6-diene-3,5-dione] |
| 180 to 186 | CCN(CC)c1ccc(/C=C/C(=O)CC(=O)/C=C/c2ccc(O)cc2)c(OCc2cccnc2)c1 [CU449, (1E,6E)-1-[4-diethylamino-2-(pyridin-3-ylmethoxy)phenyl]-7-(4-hydroxyphenyl)hepta-1,6-diene-3,5-dione] |
| 212 to 217 | Nc1ccc(/C=C/C(=O)CC(=O)/C=C/c2ccc(O)cc2)cc1 [CU408, (1E,6E)-1-(4-aminophenyl)-7-(4-hydroxyphenyl)hepta-1,6-diene-3,5-dione] |
| 73 to 80 | CCN(CC)c1ccc(/C=C/C(=O)CC(=O)/C=C/c2ccc(O)cc2)c(OCc2ccc(Cl)cc2Cl)c1 [CU451, (1E,6E)-1-[2-(2,4-dichlorobenzyloxy)-4-diethylaminophenyl]-7-(4-hydroxyphenyl)hepta-1,6-diene-3,5-dione] |
| 202 to 208 | O=C(/C=C/c1cccc2cccnc12)CC(=O)/C=C/c1cccc2cccnc12 [CU414, (1E,6E)-1,7-bis(quinolin-8-yl)hepta-1,6-diene-3,5-dione] |
| 241 to 250 | O=C(/C=C/c1ccc(O)cc1)CC(=O)/C=C/c1cc(Cl)ccc1[N+](=O)[O-] [CU465, (1E,6E)-1-(5-chloro-2-nitrophenyl)-7-(4-hydroxyphenyl)hepta-1,6-diene-3,5-dione] |
| 180 to 189 | O=C(/C=C/c1ccc(O)cc1)CC(=O)/C=C/c1ccccc1-c1cccnc1 [CU513, (1E,6E)-1-(4-hydroxyphenyl)-7-[2-(pyridin-3-yl)phenyl]hepta-1,6-diene-3,5-dione] |
